Experimental data: patent US4338330A, “Benzimidazole derivatives, their use, and compositions containing these derivatives” (Continental Pharma, priority 1979, dated 1982)
Like-named read-outs stand apart in the source and are kept apart here.

Assays:
[1] = system: isolated guinea pig auricles; test: Chronotrope effect of the substance on isolated auricles; conditions: 10^-6 M, 20 minutes, Tyrode, 29° C.
Experimental: The β-lytic effect was searched on the chronotropic response to noradrenaline of isolated guinea pig auricles. Auricles were incubated for 20 minutes in a Tyrode solution at 29° C. in the presence of the substance to be tested at the concentration of 10^-6 M. A positive (+) or negative (-) chronotrope effect of the substance was noted using the following scores: […]

[2] = system: chronotropic response to noradrenaline of isolated guinea pig auricles; test: β-lytic effect on the chronotropic response to noradrenaline of isolated auricles
Experimental: The β-lytic effect was searched on the chronotropic response to noradrenaline of isolated guinea pig auricles. Auricles were incubated for 20 minutes in a Tyrode solution at 29° C. in the presence of the substance to be tested at the concentration of 10^-6 M. A positive (+) or negative (-) chronotrope effect of the substance was noted using the following scores:
Then, the chronotrope effect of cumulative increasing concentrations of noradrenaline was recorded. The pD2 (-log CE50) value was calculated. A score of β-lytic activity of the substance was given as follows:
If the score at concentration of 10^-6 M was 3 or 4, the effect of the substance was examined at concentration of 10^-7 M and a score was recorded according to the same procedure.

[3] = Antihypertensive activity, oral, unanesthetized spontaneously hypertensive rats; format: in vivo
Experimental: […] Only rats having a systolic pressure of 180 to 220 mm Hg are used. Two rats are used by product. The treatments are administered without the knowledge of the person making the measure.
The antihypertensive effects were recorded according to a score followed by an index. The scoring system is as follows.
The index is calculated by multiplying the systolic pressure difference (cmHg) measured every 30 minutes after the treatment, by a coefficient of 1 to 6 corresponding to times of 30 to 180 minutes.

[4] = system: guinea pig ileum contractions induced by histamine; test: Antispasmodic activity against ileum contractions induced by histamine
Experimental: (§1) The antispasmodic activity of the studied substances was examined against guinea pig ileum contractions induced by histamine and acetylcholine.
(§2) These experiences allow to make it obvious an antihistaminic, anticholinergic or musculotrope activity. The response to the contracting agent (sub-maximum concentration) is obtained every 5 minutes before and after injection of increasing concentrations of tested products (10^-7 M to 10^-4 M). The inhibition percentage under the influence of tested products is calculated and the theoretical concentration giving 50% of inhibition is graphically determined for each experience. These values are expressed in -log CI50 (M).

[5] = system: guinea pig ileum contractions induced by acetylcholine; test: Antispasmodic activity against ileum contractions induced by acetylcholine
Experimental: as §1, §2

[6] = LD50 in mice, oral (Lichtfield and Wilcoxon method); format: in vivo
Experimental: LD50 were determined according to the Lichtfield and Wilcoxon method (J. Pharmacol. Exp. Ther. 96, 99, 1949) and expressed in mg/kg. The products were administered to mice orally.

[7] = 60 mg/kg oral, spontaneously hypertensive rats
[8] = 60 mg/kg oral, systolic pressure difference (cmHg) every 30 min multiplied by time coefficient 1 to 6
[9] = mouse, in vivo, po, read-out: LD50

Structure (SMILES) | Chronotrope effect (score) [1] | β-lytic effect (score) ([2]; 10^-6 M) | β-lytic effect (score) ([2]; 10^-7 M) | Antihypertensive activity (score) [3, 7] | Antihypertensive activity (index) [3, 8] | Antispasmodic activity, Hist. (-log CI50 (M)) [4] | Antispasmodic activity, Ac. Chol. (-log CI50 (M)) [5] | LD50 [6, 9] [mg/kg] | Antihypertensive activity (index) ([3]; 100 mg/kg oral) | Antihypertensive activity (score) ([3]; 100 mg/kg oral) | LD50 [6] [mg/kg] | Antihypertensive activity (index) ([3]; 3 mg/kg oral) | Antihypertensive activity (score) ([3]; 3 mg/kg oral)
CC(C)C(=O)NCCNCC(O)COc1ccc(-c2nc3ccccc3[nH]2)cc1 (stereo not shown) [Compound 26, 2-{4-[3-(2-isobutyramidoethyl)amino-2-hydroxypropoxy]phenyl}benzimidazole] | 0 (if the frequency modification was comprised between +6 and -6) | 4 (if pD2 ≤5.50) | 3 (if 6.00≥pD2 ≥5.51) | – | – | – | – | – | – | – | – | – | –
CC(C)NCC(O)COc1ccc(-c2nc3cc(Cl)ccc3[nH]2)cc1 (stereo not shown) [Compound 16] | 0 (if the frequency modification was comprised between +6 and -6) | 3 (if 6.00≥pD2 ≥5.51) | 1 (if 6.80≥pD2 ≥6.41) | ++++ (reduction>50 mm Hg) | 90 | 5.58 -log CI50 (M) | 5.25 -log CI50 (M) | 1100 | – | – | – | – | –
CC(C)NCC(O)COc1ccc(-c2nc3c([N+](=O)[O-])cccc3[nH]2)cc1 (stereo not shown) [Compound 17] | 0 (if the frequency modification was comprised between +6 and -6) | 3 (if 6.00≥pD2 ≥5.51) | 2 (if 6.40≥pD2 ≥6.01) | ++++ (reduction>50 mm Hg) | 89 | 5.15 -log CI50 (M) | 5.60 -log CI50 (M) | – | – | – | – | – | –
C[C@](N)(Cc1ccc(O)c(O)c1)C(=O)O [alpha-methyldopa, reference compound] | – | – | – | – | – | – | – | – | 47 | +++ (reduction of 30 to 50 mm Hg) | – | – | –
CC(C)NCC(O)COc1ccc(-c2nc3ccccc3[nH]2)cc1 (stereo not shown) [Compound 12, 2-[4-(3-isopropylamino-2-hydroxypropoxy)phenyl]benzimidazole] | 0 (if the frequency modification was comprised between +6 and -6) | 4 (if pD2 ≤5.50) | 2 (if 6.40≥pD2 ≥6.01) | ++++ (reduction>50 mm Hg) | 160 | 4.60 -log CI50 (M) | 4.75 -log CI50 (M) | – | – | – | 1950 | – | –
O=C(Cc1ccccc1)NCCNCC(O)COc1ccc(-c2nc3ccccc3[nH]2)cc1 (stereo not shown) [Compound 27, 2-{4-[3-(2-phenylacetamidoethyl)amino-2-hydroxypropoxy]phenyl}benzimidazole] | 0 (if the frequency modification was comprised between +6 and -6) | 4 (if pD2 ≤5.50) | 3 (if 6.00≥pD2 ≥5.51) | – | – | – | – | – | – | – | – | – | –
Cc1ccc(OCCNCC(O)COc2ccc(-c3nc4ccccc4[nH]3)cc2)cc1 (stereo not shown) [Compound 22] | 0 (if the frequency modification was comprised between +6 and -6) | 2 (if 6.40≥pD2 ≥6.01) | – | 0 (reduction <10 mm Hg) | – | 5,65 -log CI50 (M) | 5,35 -log CI50 (M) | – | – | – | – | – | –
OC(CNCCOc1ccc(Cl)cc1)COc1ccc(-c2nc3ccccc3[nH]2)cc1 (stereo not shown) [Compound 21] | – | – | – | 0 (reduction <10 mm Hg) | – | – | – | – | – | – | – | – | –
Cc1cc2nc(-c3ccc(OCC(O)CNC(C)C)cc3)[nH]c2cc1C (stereo not shown) [Compound 15] | 0 (if the frequency modification was comprised between +6 and -6) | 3 (if 6.00≥pD2 ≥5.51) | 1 (if 6.80≥pD2 ≥6.41) | ++++ (reduction>50 mm Hg) | 110 | 5.45 -log CI50 (M) | 5.38 -log CI50 (M) | 1450 | – | – | – | – | –
COc1ccc2[nH]c(-c3ccc(OCC(O)CNC(C)C)cc3)nc2c1 (stereo not shown) [Compound 19] | 1 | 4 (if pD2 ≤5.50) | – | +++ (reduction of 30 to 50 mm Hg) | 59 | 4.99 -log CI50 (M) | 4.70 -log CI50 (M) | – | – | – | – | – | –
CC(C)(C)NCC(O)COc1ccc(-c2nc3ccccc3[nH]2)cc1 (stereo not shown) [Compound 4, 2-[4-(3-t-butylamino-2-hydroxypropoxy)phenyl]benzimidazole] | 0 (if the frequency modification was comprised between +6 and -6) | 3 (if 6.00≥pD2 ≥5.51) | 1 (if 6.80≥pD2 ≥6.41) | ++++ (reduction>50 mm Hg) | 192 | 5.64 -log CI50 (M) | 5.72 -log CI50 (M) | 1420 | – | – | – | – | –
CC(C)NCC(O)COc1ccc(-c2nc3cc([N+](=O)[O-])ccc3[nH]2)cc1 (stereo not shown) [Compound 24, 2-[4-(3-isopropylamino-2-hydroxypropoxy)-phenyl]-5(6)nitrobenzimidazole] | 0 (if the frequency modification was comprised between +6 and -6) | 3 (if 6.00≥pD2 ≥5.51) | 2 (if 6.40≥pD2 ≥6.01) | – | – | 5,50 -log CI50 (M) | 5,45 -log CI50 (M) | – | – | – | – | – | –
COc1cc(-c2nc3ccccc3[nH]2)ccc1OCC(O)CNC(C)C (stereo not shown) [Compound 25, 2-[4-(3-isopropylamino-2-hydroxypropoxy)-3-methoxyphenyl]benzimidazole] | 0 (if the frequency modification was comprised between +6 and -6) | 3 (if 6.00≥pD2 ≥5.51) | 1 (if 6.80≥pD2 ≥6.41) | – | – | – | – | – | – | – | – | – | –
Cc1cc(-c2nc3ccccc3[nH]2)ccc1OCC(O)CNC(C)C (stereo not shown) [Compound 20] | 0 (if the frequency modification was comprised between +6 and -6) | 4 (if pD2 ≤5.50) | 1 (if 6.80≥pD2 ≥6.41) | 0 (reduction <10 mm Hg) | – | – | – | – | – | – | – | – | –
COC(=O)[C@H]1[C@H]2C[C@@H]3c4[nH]c5cc(OC)ccc5c4CCN3C[C@H]2C[C@@H](OC(=O)c2cc(OC)c(OC)c(OC)c2)[C@@H]1OC [reserpine, reference compound] | – | – | – | – | – | – | – | – | – | – | – | 53 | +++ (reduction of 30 to 50 mm Hg)
OC(CNC1CCCCC1)COc1ccc(-c2nc3ccccc3[nH]2)cc1 (stereo not shown) [Compound 18] | 0 (if the frequency modification was comprised between +6 and -6) | 1 (if 6.80≥pD2 ≥6.41) | – | +++ (reduction of 30 to 50 mm Hg) | 83 | 5.45 -log CI50 (M) | 5.21 -log CI50 (M) | – | – | – | – | – | –
